Measured values reported in US4133826A, “Novel inversion process” (Roussel UCLAF, priority 1976, dated 1979).

Key:
[1] = tested on: domestic flies (houseflies); test: Activity against houseflies (topical application); type: in vivo, domestic flies of mixed sexes; conditions: for % dead after 24 hours: 1 μl acetone solution, dorsal thorax
Procedure: A. Activity against houseflies
The insecticidal tests were effected on domestic flies of mixed sexes by applying a topical solution of 1 μl of acetone solution of (S) α-cyano-3-phenoxybenzyl 2,2-dimethyl-3R-(2,2-dichlorovinyl)-cyclopropane-1R-carboxylate (product A) to the dorsal thorax of the flies. 50 flies were used for each test and the results were determined as the LD50, dose at which 50% of the flies were dead 24 hours after treatment.

[2] = tested on: Spodoptera Littoralis larvae; test: Activity against Spodoptera Littoralis larvae (topical application); type: in vivo; conditions: for % dead after 24 h / % dead after 48 h: 1 μl acetone solution
Procedure: B. Activity against Spodoptera Littoralis larvae
This test was effected by topical application of 1 μl of an acetone solution of product A on the dorsal thorax of each larva and for each test, 15 caterpillers of Spodoptera Littoralis in the 4th larva stage were used. After treatment, the individuals were placed in an artificial nutritive media (Poitot medium) and the number of dead caterpillers was determined 24 and 48 hours after the treatment to determine the LD50 dose.

insects = test: Insecticidal activity (general statement); type: in vivo; conditions: in words

Question: Which results are given for `CC1(C)[C@H](C(=O)O[C@H](C#N)c2cccc(Oc3ccccc3)c2)[C@@H]1C=C(Cl)Cl` [product A, (S) α-cyano-3-phenoxybenzyl 2,2-dimethyl-3R-(2,2-dichlorovinyl)-cyclopropane-1R-carboxylate]?
Answer: % dead after 24 hours ([1]; dose 0.625 ng, topical): 10.0%; % dead after 24 hours ([1]; dose 1.25 ng, topical): 34.5%; % dead after 24 hours ([1]; dose 2.5 ng, topical): 68.0%; % dead after 24 hours ([1]; dose 3.75 ng, topical): 83.2%; % dead after 24 hours ([1]; dose 5 ng, topical): 93.3%; LD50 ([1]; dose at which 50% of the flies were dead 24 hours after treatment, topical): 1.6 ng; effective against domestic flies ([1]; in words, experimental tests): effective against domestic flies; insecticidal activity against houseflies ([1]; in words, from Table I): very high insecticidal activity; % dead after 24 h ([2]; dose 0.1562 ng, topical, dorsal thorax, 4th larva stage): 20.5%; % dead after 48 h ([2]; dose 0.1562 ng, topical, dorsal thorax, 4th larva stage, 48 h): 27.3%; % dead after 24 h ([2]; dose 0.3125 ng, topical, dorsal thorax, 4th larva stage): 48.9%; % dead after 48 h ([2]; dose 0.3125 ng, topical, dorsal thorax, 4th larva stage, 48 h): 62.2%; % dead after 24 h ([2]; dose 0.625 ng, topical, dorsal thorax, 4th larva stage): 80.0%; % dead after 48 h ([2]; dose 0.625 ng, topical, dorsal thorax, 4th larva stage, 48 h): 82.2%; % dead after 24 h ([2]; dose 1.25 ng, topical, dorsal thorax, 4th larva stage): 95.6%; % dead after 48 h ([2]; dose 1.25 ng, topical, dorsal thorax, 4th larva stage, 48 h): 97.8%; effective against larvae of Spodoptera Littoralis ([2]; in words, experimental tests): effective; LD50 at 48 h ([2]; topical, dorsal thorax, 4th larva stage, 48 h): 0.3 ng; insecticidal activity (insects): excellent insecticidal activity
